From patent publication US9051342B2 (priority 2004, dated 2015)

melting point | SMILES
260 to 262 °C | O=C(O)c1ccc(-n2cc(-c3ccccn3)cn2)cc1 [Compound 114, 4-(4-Pyridin-2-yl-pyrazol-1-yl)-benzoic acid]
215 to 218 °C | CC(C)c1ccc(-n2cc(-c3ccc(C(=O)O)cc3)cn2)cc1 [Compound 229, 4-[1-(4-Isopropyl-phenyl)-1H-pyrazol-4-yl]-benzoic acid]
331 to 333 °C | O=C(O)c1cccc(-n2cc(-c3nc4ccccc4o3)cn2)c1 [Compound 121, 3-(4-Benzooxazol-2-yl-pyrazol-1-yl)-benzoic acid]
270 to 271 °C | O=C(O)c1ccc([N+](=O)[O-])c(-c2cnn(-c3ccc(Cl)cc3)c2)c1 [Compound 56, 3-[1-(4-Chloro-phenyl)-1H-pyrazol-4-yl]-4-nitro-benzoic acid]
310 to 311 °C | O=C(O)c1cccc(-n2cc(-c3cnccn3)cn2)c1 [Compound 119, 3-(4-Pyrazin-2-yl-pyrazol-1-yl)-benzoic acid]
160 to 161 °C | COc1ccc(-n2ccc(-c3cccc(C(=O)O)c3)n2)cc1 [Compound 76, 3-[1-(4-Methoxy-phenyl)-1H-pyrazol-3-yl]-benzoic acid]
277 to 278 °C | COc1cccc2c1Cc1cn(-c3cccc(C(=O)O)c3)nc1-2 [Compound 184, 3-(5-Methoxy-4H-indeno[1,2-c]pyrazol-2-yl)-benzoic acid]
280 to 282 °C | Cc1ccc(-n2cc(-c3ccc(C(=O)O)cc3)cn2)cc1 [Compound 178, 4-(1-p-Tolyl-1H-pyrazol-4-yl)-benzoic acid]
192 to 193 °C | COc1ccc2c(c1)-c1nn(-c3cccc(C(=O)O)c3)cc1CC2 [Compound 143, 3-(8-Methoxy-4,5-dihydro-benzo[g]indazol-2-yl)-benzoic acid]
191 to 194 °C | O=C(O)c1cccc(-n2ccc(-c3ccc(OC(F)(F)F)cc3)n2)c1 [Compound 95, 3-[3-(4-Trifluoromethoxy-phenyl)-pyrazol-1-yl]-benzoic acid]
213 to 215 °C | O=C(O)c1cccc(-c2cnn(-c3ccc(OC(F)(F)F)cc3)c2)c1 [Compound 133, 3-[1-(4-Trifluoromethoxy-phenyl)-1H-pyrazol-4-yl]-benzoic acid]
278 to 280 °C | CCc1ccc(-n2ccc(-c3ccc(C(=O)O)cc3)c2)cc1 [Compound 129, 4-[1-(4-Ethyl-phenyl)-1H-pyrrol-3-yl]-benzoic acid]
272 to 274 °C | O=C(O)c1cccc(-n2cc(-c3cccc(O)c3)cn2)c1 [Compound 207, 3-[4-(3-Hydroxy-phenyl)-pyrazol-1-yl]-benzoic acid]
198 to 200 °C | O=C(O)c1cccc(-c2ccn(-c3ccccc3Cl)c2)c1 [Compound 198, 3-[1-(2-Chloro-phenyl)-1H-pyrrol-3-yl]-benzoic acid]
173 to 174 °C | O=C(O)c1cccc(-n2ccc(-c3cccc(F)c3)n2)c1 [Compound 93, 3-[3-(3-Fluoro-phenyl)-pyrazol-1-yl]-benzoic acid]
202 to 204 °C | O=C(O)c1ccc(-c2ccn(-c3ccccc3F)c2)cc1 [Compound 151, 4-[1-(2-Fluoro-phenyl)-1H-pyrrol-3-yl]-benzoic acid]
251 to 252 °C | Cc1cccc(-c2cnn(-c3ccc(C(=O)O)cc3)c2)c1 [Compound 91, 4-(4-m-Tolyl-pyrazol-1-yl)-benzoic acid]
230 to 231 °C | O=C(O)c1ccc(-c2cnn(-c3cccc(OC(F)(F)F)c3)c2)cc1 [Compound 224, 4-[1-(3-Trifluoromethoxy-phenyl)-1H-pyrazol-4-yl]-benzoic acid]
227 to 228 °C | O=C(O)c1cccc(-n2cc3c(n2)-c2ccccc2OC3)c1 [Compound 144, 3-(4H-Chromeno[4,3-c]pyrazol-2-yl)-benzoic acid]
215 to 217 °C | CC(C)c1ccc(-c2nn(-c3cccc(C(=O)O)c3)c(=S)o2)cc1 [Compound 283, 3-[5-(4-Isopropyl-phenyl)-2-thioxo-[1,3,4]oxadiazol-3-yl]-benzoic acid]
